Results taken from PMC6979384, “Characterization of the plant homeodomain (PHD) reader family for their histone tail interactions” (Epigenetics & Chromatin, 2020).

Key:
Assay in all cases: Histone peptide microarray
Assay type in all cases: binding, human
Settings in all cases: sheet "Array Heatmap", total n = 4
KDM5B (1) = test system: KDM5B (1)
Summary of the method: (§1)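 GST-tagged PHD finger readers were expressed, purified and applied at 0.5 μM to a microarray of 293 synthetic histone peptides carrying single or combinatorial PTMs, using an optimized protocol. Binding signals are averages with standard deviation from 4 replicates.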

CHD5 (PCC) = test system: CHD5 (PCC)
Summary of the method: as §1

DIDO1 = test system: DIDO1
Summary of the method: as §1

PHF13 = test system: PHF13
Summary of the method: as §1

PHF23 = test system: PHF23
Summary of the method: as §1

KDM5A (1) = test system: KDM5A (1)
Summary of the method: as §1

ING4 = test system: ING4
Summary of the method: as §1

SP140L = test system: SP140L
Summary of the method: as §1

KDM5A (3) = test system: KDM5A (3)
Summary of the method: as §1

KDM5B (3) = test system: KDM5B (3)
Summary of the method: as §1

CHD4 (PPCC) = test system: CHD4 (PPCC)
Summary of the method: as §1

BPTF (PB) = test system: BPTF (PB)
Summary of the method: as §1

PHRF1 (RP) = test system: PHRF1 (RP)
Summary of the method: as §1

MORC3 (CW) = test system: MORC3 (CW)
Summary of the method: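 GST-PHD reader, 0.5 μM, probed on 293-peptide histone array (single/combinatorial PTMs); optimized array protocol; signal = mean ± SD, n = 4.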

RAG2 = test system: RAG2
Summary of the method: as §1

DPF2 (PPC2W2) = test system: DPF2 (PPC2W2)
Summary of the method: as §1

PHF21A = test system: PHF21A
Summary of the method: as §1

PHF2 = test system: PHF2
Summary of the method: as §1

KDM7A = test system: KDM7A
Summary of the method: as §1

CHD5 (PPCC) = test system: CHD5 (PPCC)
Summary of the method: as §1

PHF8 = test system: PHF8
Summary of the method: as §1

ING5 = test system: ING5
Summary of the method: as §1

BAZ2B = test system: BAZ2B
Summary of the method: as §1

MLL5 = test system: MLL5
Summary of the method: as §1

AIRE (PP) = test system: AIRE (PP)
Summary of the method: as §1

ING2 = test system: ING2
Summary of the method: as §1

KDM4C (TTP) = test system: KDM4C (TTP)
Summary of the method: as §1

ING1 = test system: ING1
Summary of the method: as §1

TAF3 = test system: TAF3
Summary of the method: as §1

TRIM66 (PB) = test system: TRIM66 (PB)
Summary of the method: as §1

ING3 = test system: ING3
Summary of the method: as §1

[1] = GST-tagged reader, histone peptide array

Substance: H3K18me2: H3 1-20 [Peptide H3K18me2]
- Array Heatmap signal, KDM5B (1) (KDM5B (1); [1]): 0.731
- Array Heatmap signal, CHD5 (PCC) (CHD5 (PCC); [1]): 0.7562
- Array Heatmap signal, DIDO1 (DIDO1; [1]): 0.6131
- Array Heatmap signal, PHF13 (PHF13; [1]): 0.5815
- Array Heatmap signal, PHF23 (PHF23; [1]): 0.5164
- Array Heatmap signal, KDM5A (1) (KDM5A (1); [1]): 0.4854
- Array Heatmap signal, ING4 (ING4; [1]): 0.4353
- Array Heatmap signal, SP140L (SP140L; [1]): 0.3547
- Array Heatmap signal, KDM5A (3) (KDM5A (3); [1]): 0.5609
- Array Heatmap signal, KDM5B (3) (KDM5B (3); [1]): 0.4828
- Array Heatmap signal, CHD4 (PPCC) (CHD4 (PPCC); [1]): 0.5307
- Array Heatmap signal, BPTF (PB) (BPTF (PB); [1]): 0.334
- Array Heatmap signal, PHRF1 (RP) (PHRF1 (RP); [1]): 0.655
- Array Heatmap signal, MORC3 (CW) (MORC3 (CW); [1]): 0.432
- Array Heatmap signal, RAG2 (RAG2; [1]): 0.2403
- Array Heatmap signal, DPF2 (PPC2W2) (DPF2 (PPC2W2); [1]): 0.713
- Array Heatmap signal, PHF21A (PHF21A; [1]): 0.4944
- Array Heatmap signal, PHF2 (PHF2; [1]): 0.4223
- Array Heatmap signal, KDM7A (KDM7A; [1]): 0.3495
- Array Heatmap signal, CHD5 (PPCC) (CHD5 (PPCC); [1]): 0.548
- Array Heatmap signal, PHF8 (PHF8; [1]): 0.3314
- Array Heatmap signal, ING5 (ING5; [1]): 0.3565
- Array Heatmap signal, BAZ2B (BAZ2B; [1]): 0.4823
- Array Heatmap signal, MLL5 (MLL5; [1]): 0.5113
- Array Heatmap signal, AIRE (PP) (AIRE (PP); [1]): 0.593
- Array Heatmap signal, ING2 (ING2; [1]): 0.5955
- Array Heatmap signal, KDM4C (TTP) (KDM4C (TTP); [1]): 0.5076
- Array Heatmap signal, ING1 (ING1; [1]): 0.5097
- Array Heatmap signal, TAF3 (TAF3; [1]): 0.2642
- Array Heatmap signal, TRIM66 (PB) (TRIM66 (PB); [1]): 0.5483
- Array Heatmap signal, ING3 (ING3; [1]): 0.447

Substance: H3K23ac (1-32): H3 1-32
- Array Heatmap value (peptide array signal) (KDM5B (1); KDM5B (1), each array performed twice): 0.696
- Array Heatmap value (peptide array signal) (CHD5 (PCC); CHD5 (PCC), each array performed twice): 0.6958
- Array Heatmap value (peptide array signal) (DIDO1; DIDO1, each array performed twice): 0.6401
- Array Heatmap value (peptide array signal) (PHF13; PHF13, each array performed twice): 0.5924
- Array Heatmap value (peptide array signal) (PHF23; PHF23, each array performed twice): 0.526
- Array Heatmap value (peptide array signal) (KDM5A (1); KDM5A (1), each array performed twice): 0.4665
- Array Heatmap value (peptide array signal) (ING4; ING4, each array performed twice): 0.4368
- Array Heatmap value (peptide array signal) (SP140L; SP140L, each array performed twice): 0.3597
- Array Heatmap value (peptide array signal) (KDM5A (3); KDM5A (3), each array performed twice): 0.4863
- Array Heatmap value (peptide array signal) (KDM5B (3); KDM5B (3), each array performed twice): 0.4657
- Array Heatmap value (peptide array signal) (CHD4 (PPCC); CHD4 (PPCC), each array performed twice): 0.5377
- Array Heatmap value (peptide array signal) (BPTF (PB); BPTF (PB), each array performed twice): 0.3332
- Array Heatmap value (peptide array signal) (PHRF1 (RP); PHRF1 (RP), each array performed twice): 0.68
- Array Heatmap value (peptide array signal) (MORC3 (CW); MORC3 (CW), each array performed twice): 0.4909
- Array Heatmap value (peptide array signal) (RAG2; RAG2, each array performed twice): 0.2372
- Array Heatmap value (peptide array signal) (DPF2 (PPC2W2); DPF2 (PPC2W2), each array performed twice): 0.7046
- Array Heatmap value (peptide array signal) (PHF21A; PHF21A, each array performed twice): 0.4363
- Array Heatmap value (peptide array signal) (PHF2; PHF2, each array performed twice): 0.4393
- Array Heatmap value (peptide array signal) (KDM7A; KDM7A, each array performed twice): 0.3346
- Array Heatmap value (peptide array signal) (CHD5 (PPCC); CHD5 (PPCC), each array performed twice): 0.5376
- Array Heatmap value (peptide array signal) (PHF8; PHF8, each array performed twice): 0.3314
- Array Heatmap value (peptide array signal) (ING5; ING5, each array performed twice): 0.3453
- Array Heatmap value (peptide array signal) (BAZ2B; BAZ2B, each array performed twice): 0.4309
- Array Heatmap value (peptide array signal) (MLL5; MLL5, each array performed twice): 0.5116
- Array Heatmap value (peptide array signal) (AIRE (PP); AIRE (PP), each array performed twice): 0.5525
- Array Heatmap value (peptide array signal) (ING2; ING2, each array performed twice): 0.596
- Array Heatmap value (peptide array signal) (KDM4C (TTP); KDM4C (TTP), each array performed twice): 0.4876
- Array Heatmap value (peptide array signal) (ING1; ING1, each array performed twice): 0.5079
- Array Heatmap value (peptide array signal) (TAF3; TAF3, each array performed twice): 0.2562
- Array Heatmap value (peptide array signal) (TRIM66 (PB); TRIM66 (PB), each array performed twice): 0.6504
- Array Heatmap value (peptide array signal) (ING3; ING3, each array performed twice): 0.4476
